From patent US10059701B2 (Merck Patent GmbH, priority 2015, dated 2018)

Legend:
IRAK4 = target: T1, IRAK4 (Homo sapiens, UniProt Q9NWZ3); experiment: IRAK4 enzymatic assay (ADP-Glo luminescence); format: biochemical; details: purified human recombinant His-TEV-IRAK4 (1-460), ATP 2 μM
T1 construct: His-TEV-IRAK4 (1-460); His (N); TEV cleavage site (N)
T1 sequence (Q9NWZ3 1-460): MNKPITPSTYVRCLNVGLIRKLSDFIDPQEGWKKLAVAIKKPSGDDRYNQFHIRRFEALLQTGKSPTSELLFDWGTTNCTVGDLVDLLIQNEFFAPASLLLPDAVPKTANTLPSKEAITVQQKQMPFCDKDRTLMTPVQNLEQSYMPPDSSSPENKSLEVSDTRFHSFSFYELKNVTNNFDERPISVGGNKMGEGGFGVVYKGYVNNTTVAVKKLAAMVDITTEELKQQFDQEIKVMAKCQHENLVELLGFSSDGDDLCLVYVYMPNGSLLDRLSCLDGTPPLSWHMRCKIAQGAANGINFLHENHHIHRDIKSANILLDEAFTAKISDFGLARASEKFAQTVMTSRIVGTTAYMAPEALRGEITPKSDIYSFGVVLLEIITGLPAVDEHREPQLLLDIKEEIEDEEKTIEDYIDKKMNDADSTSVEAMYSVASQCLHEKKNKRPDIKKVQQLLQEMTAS
Summary of the method: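 Recombinant His-TEV-IRAK4 (1-460) at 0.3 μg/ml preincubated 15 min at RT with compounds (10 μM to 0.5 nM) in Hepes pH 7.0 buffer with MgCl2/MnCl2. Reaction started with 2 μM ATP and 300 nM STK1-biotin peptide, run 2 h at RT. ADP formed read by ADP-Glo luminescence.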

IRAK1 = target: T2, IRAK1 (Homo sapiens, UniProt P51617); experiment: IRAK1 enzymatic assay (ADP-Glo luminescence); format: biochemical; details: purified human recombinant His-TEV-IRAK1 (194-712)
T2 construct: His-TEV-IRAK1 (194-712); His (N); TEV cleavage site (N)
T2 sequence (P51617 194-712): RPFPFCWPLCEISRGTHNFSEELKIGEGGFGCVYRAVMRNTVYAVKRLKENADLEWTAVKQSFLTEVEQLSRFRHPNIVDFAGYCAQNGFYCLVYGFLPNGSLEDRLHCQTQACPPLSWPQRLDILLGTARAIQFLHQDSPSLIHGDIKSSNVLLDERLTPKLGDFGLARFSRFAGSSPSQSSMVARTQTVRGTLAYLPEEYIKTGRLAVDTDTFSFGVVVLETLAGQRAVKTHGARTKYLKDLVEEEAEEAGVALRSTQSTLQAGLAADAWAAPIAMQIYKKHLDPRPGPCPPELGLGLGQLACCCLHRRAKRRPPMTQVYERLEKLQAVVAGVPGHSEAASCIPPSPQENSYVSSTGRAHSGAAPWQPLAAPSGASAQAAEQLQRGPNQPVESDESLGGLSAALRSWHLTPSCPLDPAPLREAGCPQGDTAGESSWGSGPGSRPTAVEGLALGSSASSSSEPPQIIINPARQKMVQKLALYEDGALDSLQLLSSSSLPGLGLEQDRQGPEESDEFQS
Summary of the method: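 Recombinant human His-TEV-IRAK1 (194-712), 0.3 μg/ml, preincubated 15 min at RT with compounds (10 μM to 0.5 nM) in 50 mM Hepes pH 7.0, 10 mM MgCl2, 2 mM DTT, 0.1% BSA. ATP-started reaction run 2 hours at RT; ADP formed from ATP hydrolysis/autophosphorylation read by ADP-Glo luminescence.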

An IC50 (IRAK4) of no more than 100 nM and an IC50 (IRAK1) greater than 1000 nM were found for `O=C(/N=c1\[nH]c2cc(N3CCOCC3=O)ccc2n1CCCO)c1ccc2scnc2c1` [Example 232, (E)-N-(1-(3-hydroxypropyl)-5-(3-oxomorpholino)-1H-benzo[d]imidazol-2(3H)-ylidene)benzo[d]thiazole-5-carboxamide] in this work.
